Results on 11 molecules are retold here after PubChem BioAssay (NCI).

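Exposure lasted 48 hours, with cells grown in 96-well plates and compounds tested at five concentrations. GI50 is the concentration that inhibits growth by half. Definition used: TGI = concentration required for complete inhibition of growth.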

Test in all cases: inhibition of tumour cell growth, NCI panel, 48 h
The test system of experiment [1] is A549 NSCLC.
The test system of experiment [2] is HCC-2998 colon.
The test system of experiment [3] is HOP-92 NSCLC.
Experiment [4] deals with K-562 leukemia.
Experiment [5] concerns NCI-H522 lung.
Experiment [6] has as its system SK-MEL-28 melanoma.
Experiment [7] relates to SNB-75 CNS.
Experiment [8] relates to KM20L2 colon.
The subject of experiment [9] is M19-MEL melanoma.

`CC[C@@]1(OC(=O)CN)C(=O)OCc2c1cc1n(c2=O)Cc2cc3cc4c(cc3nc2-1)OCO4`: the GI50 in experiment [1] is less than 0.01 µM; in experiment [2], 0.0171 µM; in [3] it was less than 0.01 µM; in experiment [4], less than 0.01 µM; in experiment [5], less than 0.01 µM; in [6], 0.209 µM. In experiment [7], the GI50 was less than 0.01 µM. Also, the TGI was determined as 0.309 µM in experiment [1]; 1.38 µM in experiment [2]; 0.404 µM in experiment [3]; 0.246 µM in experiment [5]; 10.8 µM in experiment [6].

As to `CC(=O)Nc1ccc(-c2c3nc(c(-c4cc5ccccc5[n+](C)c4)c4ccc([nH]4)c(-c4ccc(NC(C)=O)cc4)c4nc(c(-c5cc6ccccc6[n+](C)c5)c5ccc2[nH]5)C=C4)C=C3)cc1`, the GI50 in [1] is 8.6 µM; in experiment [2], greater than 50 µM; in experiment [3] it was 23.9 µM; in experiment [4], 20.1 µM; in experiment [5] it was 14.6 µM; in experiment [6] it was 10.5 µM. Also, the GI50 in experiment [7] is 2.17 µM. For the same molecule, the TGI is 35.4 µM in experiment [1]; greater than 50 µM in [2]; greater than 50 µM in [3]; greater than 50 µM in experiment [4]; greater than 50 µM in [5]; 29.2 µM in [6]. In experiment [7], this molecule displayed a TGI of 11.7 µM.

As to `[N-]=[N+]=Nc1ccc(CCN2CCN(c3cccc(C(F)(F)F)c3)CC2)cc1I`, the TGI in experiment [1], in experiment [4], in [8], in experiment [9], in experiment [5] and in experiment [6] was greater than 100 µM throughout. The TGI in experiment [7] was greater than 100 µM.

Regarding `Oc1c(C(Nc2cccc3ccccc23)c2ccccc2)ccc2cccnc12` (stereo not drawn), the GI50 was 2.95 µM in experiment [1]; 4.56 µM in experiment [2]; 2.95 µM in experiment [3]; 3.8 µM in [4]; 2.74 µM in [5]; 4.14 µM in experiment [6]. In addition, the GI50 in experiment [7] is 5.67 µM. Further, the TGI in experiment [1] is greater than 100 µM; in experiment [2], greater than 100 µM; in experiment [3] it was 36.3 µM; in experiment [4], greater than 100 µM; in [5], 7.82 µM; in experiment [6], greater than 100 µM. In experiment [7], this molecule yielded a TGI greater than 100 µM.

For the molecule `Cc1cc(Cc2cc(C)c(O)c(C)c2)cc(C)c1O`, the GI50 in experiment [1] was 4.32 µM; in experiment [2], 16.3 µM; in experiment [3] it was 4.35 µM; in [4] it was 1.76 µM; in experiment [5], 3.49 µM; in experiment [6] it was 11.4 µM. Besides, the GI50 in [7] was 2.59 µM. Also, the TGI came to 38.2 µM in experiment [1]; 82.1 µM in experiment [2]; 29.4 µM in experiment [3]; 18.8 µM in experiment [4]; 15.4 µM in [5]; 66.5 µM in [6]. Besides, in experiment [7], the TGI was 25.9 µM.

For `Cc1cc(=O)oc2c(CN3CCCCC3)c(O)ccc12`, the TGI in [1], in experiment [2], in experiment [3], in [4], in experiment [5] and in experiment [6] was greater than 100 µM each time. This molecule came in with a TGI in experiment [7] greater than 100 µM.

Take `COc1cc(N2CCN(C(C)C)CC2)ccc1Nc1nc(Nc2cccc3ncccc23)c2cc[nH]c2n1`: the GI50 was 2.92 µM in experiment [1]; 3.17 µM in [2]; 0.464 µM in experiment [3]; 5.34 µM in experiment [4]; 3.97 µM in experiment [5]; 4.77 µM in experiment [6]. The GI50 in experiment [7] is 3.99 µM. Further, the TGI in experiment [1] was found to be 15.6 µM; in experiment [2], 9.77 µM; in experiment [3], 2.85 µM; in experiment [4], 18.4 µM; in experiment [5] it was 9.05 µM; in experiment [6] it was 9.56 µM. In experiment [7], this molecule yielded a TGI greater than 15.4 µM.

`COc1c(C2=NC(C(C)C)CO2)ccc2ccccc12` (stereo not drawn): the TGI in experiment [1], in experiment [2], in experiment [3], in [4], in experiment [8] and in [9] was greater than 100 µM in each case. Moreover, the TGI in experiment [5] was 99.8 µM; in [6], greater than 100 µM; in experiment [7] it was greater than 100 µM.

As for `O=C(/C=C/C12c3ccccc3C(c3ccccc31)C1C(=O)N(c3ccccc3)C(=O)C12)c1ccc(Cl)cc1` (stereo not drawn), the GI50 is 2.37 µM in experiment [1]; 1.7 µM in experiment [2]; 1.33 µM in experiment [3]; 1.55 µM in experiment [4]; 1.74 µM in experiment [5]; 1.98 µM in experiment [6]. In addition, in experiment [7], the GI50 is 1.37 µM. Further, the TGI is greater than 100 µM in experiment [1]; 3.66 µM in experiment [2]; 3.26 µM in experiment [3]; greater than 100 µM in [4]; 3.58 µM in experiment [5]; 5.11 µM in experiment [6]. The molecule further displayed a TGI in [7] of 6.77 µM.

On to `O=[N+]([O-])c1cc([N+](=O)[O-])c(Cl)c(Cl)c1Cl`, for which the GI50 in experiment [1] is 3.16 µM; in experiment [2] it was 2.84 µM; in [3] it was 1.68 µM; in [4] it was 0.725 µM; in [5], 0.23 µM; in experiment [6], 1.67 µM. Moreover, the GI50 in experiment [7] was 1.54 µM. Moreover, the TGI was determined as 13.9 µM in [1]; 8.32 µM in [2]; 3.15 µM in [3]; 10.9 µM in experiment [4]; 0.605 µM in experiment [5]; 3.06 µM in experiment [6]. This molecule also gave a TGI in experiment [7] of 2.95 µM.

On to `O=C(/C=C1\C(=O)N(Cc2ccc([N+](=O)[O-])cc2)c2ccccc21)c1ccc(OCCN2CCCCC2)cc1`, for which the GI50 was 1.68 µM in experiment [1]; 1.57 µM in [2]; 1.07 µM in [3]; 0.415 µM in [4]; 0.614 µM in experiment [5]; 1.53 µM in experiment [6]. In experiment [7], the GI50 is 2.22 µM. Besides, the TGI in experiment [1] was 3.28 µM; in experiment [2], 2.93 µM; in experiment [3], 2.37 µM; in [4], 2.2 µM; in experiment [5] it was 1.99 µM; in [6], 2.89 µM. The same molecule displayed a TGI in experiment [7] of 11.3 µM.
